{
  "source": "patent US6998395B2",
  "about": "“Administration of estradiol metabolites for the treatment or prevention of obesity, metabolic syndrome, diabetes, and vascular and renal disorders” (University of Pittsburg,, priority 2001, dated 2006)",
  "key": {"[1]": {"system": "female ZSF1 rats", "test": "Treatment of ovarectomized female ZSF1 rats for 24 weeks with 2-hydroxyestradiol", "format": "in vivo, rat", "settings": "10 ug/kg/hr", "experimental": "Male ZSF1 rats were treated continuously for 24 weeks with polyethylene glycol 400 (PEG 400) (Sigma, St. Louis, Mo.) or one of three doses of 2-hydroxyestradiol or 2-methoxyestradiol (Steraloids, Inc. Newport, R.I.) dissolved in PEG 400. The three doses were 1 ug/kg/hr, 3 ug/kg/hr or 10 ug/kg/hr. Female ZSF1 rats were treated continuously for 24 weeks with either PEG 400 or 10 ug/kg/hr of 2-hydroxyestradiol. Female ZSF1 rats were ovarectomized at 11 weeks of age. For all animals, both male and female, treatments with estradiol metabolites were begun at approximately 13 weeks of age. […]\nMetabolic cages (Nalgene, Rochester, N.Y.) were used in this study. […] The first 24-hour period was considered an acclimation period, while food and fluid intake and urine volume were measured during the second 24-hour period. […] The blood was further analyzed to assess creatinine clearance, fractional sodium excretion, fractional potassium excretion and fractional albumin excretion. In addition, the following criteria were also assessed while the animals were in the metabolic cages: body weight, feed intake, water intake, urine output, urinary protein, urinary albumin, urinary glucose, urinary sodium and urinary potassium. […]\n(§1) Food intake was measured by filling the food containers with standard powder laboratory food up to a total weight of 250 grams. […]"}, "[2]": {"system": "male ZSF1 rats", "test": "Treatment of male ZSF1 rats for 24 weeks with 2-hydroxyestradiol or 2-methoxyestradiol", "format": "in vivo, rat", "experimental": "Male ZSF1 rats were treated continuously for 24 weeks with polyethylene glycol 400 (PEG 400) (Sigma, St. Louis, Mo.) or one of three doses of 2-hydroxyestradiol or 2-methoxyestradiol (Steraloids, Inc. Newport, R.I.) dissolved in PEG 400. The three doses were 1 ug/kg/hr, 3 ug/kg/hr or 10 ug/kg/hr. Female ZSF1 rats were treated continuously for 24 weeks with either PEG 400 or 10 ug/kg/hr of 2-hydroxyestradiol. Female ZSF1 rats were ovarectomized at 11 weeks of age. For all animals, both male and female, treatments with estradiol metabolites were begun at approximately 13 weeks of age. One group of male ZSF1 rats received only PEG 400 but were pair fed to receive the same daily food intake as the male ZSF1 rats treated with 10 ug/kg/hr 2-hydroxyestradiol. Treatment was administered via subcutaneous implanted pumps (Alzet Osmotic Pump, Model 2ML4, Alza Corporation, Palo Alto, Calif.). The study was designed to evaluate treatment effects and dose responses on body weight, food intake, water intake, urine output, urinary protein excretion, cholesterol levels, plasma glucose levels and glucose tolerance.\nStock solutions of both 2-hydroxyestradiol and 2-methoxyestradiol were made by dissolving the required amount of estradiol metabolite in PEG 400. This solution was diluted in PEG 400 to deliver the three required doses based on the mean weight of each treatment group and the stated volume delivery rate for each lot of osmotic pumps in the study. This stock solution was prepared fresh prior to each osmotic pump implantation in each group. The control solution of PEG 400 was created in the same manner.\nAll treatments were administered via a subcutaneously implanted osmotic pump (Alzet Osmotic Pump, Model 2ML4, Alza Corporation, Palo Alto, Calif.). Each lot of osmotic pumps were delivered with the stated rate of delivery and formulation concentrations were adjusted to ensure delivery of 1,3, or 10 ug/kg/hr based on the stated rate of delivery of each lot. Doses were adjusted for the mean weight of the animals in the treatment group obtained 24 hours prior to implantation of the osmotic minipump.\nAnimals were anesthetized prior to implantation of an osmotic minipump with halothane and oxygen (2.5 liter/min) delivered by a Fluotec 3 anesthetic device (Ohmeda, Steeton, UK). After lightly anesthetizing each animal, implantation was accomplished by shaving the back and creating a half-inch incision in which to insert the osmotic minipump. The incision was then closed with wound clips that were removed in seven days. Osmotic minipumps were replaced at 33-day intervals and each time a particular animal received an osmotic minipump, the insertion point was changed.\nMetabolic cages (Nalgene, Rochester, N.Y.) were used in this study. Animals were placed in metabolic cages for 48 hours. The first 24-hour period was considered an acclimation period, while food and fluid intake and urine volume were measured during the second 24-hour period. Additionally, a tail vein sample was obtained to measure blood glucose, sodium, potassium, albumin and creatinine. The blood was further analyzed to assess creatinine clearance, fractional sodium excretion, fractional potassium excretion and fractional albumin excretion. In addition, the following criteria were also assessed while the animals were in the metabolic cages: body weight, feed intake, water intake, urine output, urinary protein, urinary albumin, urinary glucose, urinary sodium and urinary potassium.\nBody weights were assessed 24 hours before pump implantation and those weights were used to calculate the dosage of drug or vehicle to be given to each animal based on the mean body weight of each group. Animals were weighed approximately once every two months prior to being placed in a metabolic cage.\nas §1"}, "[3]": {"settings": "male, 10 ug/kg/hr, 24 weeks, versus control animals"}, "[4]": {"settings": "male, 1, 3 or 10 ug/kg/hr s.c. osmotic pump, 24 weeks, versus control"}},
  "data": [
    {"smiles": "C[C@]12CC[C@@H]3c4cc(O)c(O)cc4CC[C@H]3[C@@H]1CC[C@@H]2O", "note": "[2-hydroxyestradiol, estra-1,3,5 (10)-triene-2,3,1 7-triol (17β)]", "values": [
      {"measurement": "Leptin levels (FIG. 11)", "setting": "[1]; 20 weeks, versus control animals", "result": "reduced"},
      {"measurement": "Blood urea nitrogen (FIG. 10)", "setting": "[1]; 24 weeks, versus control groups", "result": "lower"},
      {"measurement": "Leptin levels (FIG. 11)", "setting": "[2]; male, 10 ug/kg/hr, 20 weeks, versus control animals", "result": "clearly reduced"},
      {"measurement": "24-hour urine output (FIG. 13)", "setting": "[2]; [3]", "result": "lower"},
      {"measurement": "24-hour water intake (FIG. 12)", "setting": "[2]; [3]", "result": "lower"},
      {"measurement": "Blood urea nitrogen (FIG. 10)", "setting": "[2]; male, 10 ug/kg/hr, 24 weeks, versus control groups", "result": "lower"},
      {"measurement": "Plasma level of glucose after administration of 2 g/4 ml/kg glucose (oral glucose tolerance test, FIGS. 8 and 9)", "setting": "[2]; male, 10 ug/kg/hr, treated for 14 to 15 weeks, versus control groups", "result": "lower"},
      {"measurement": "Body weight gain (FIGS. 4 and 5)", "setting": "[2]; [4]", "result": "less body weight gain"},
      {"measurement": "Food intake", "setting": "[2]; [4]", "result": "lower food intake"},
      {"measurement": "Urinary protein excretion (FIG. 7)", "setting": "[2]; male, 1, 3 or 10 ug/kg/hr, after 24 weeks of treatment, versus control animals", "result": "lower"}
    ]}
  ]
}
